These results are taken from patent publication US7326679B2, “Anticancer peptide compositions” (TranXenoGen, Inc., priority 2003, dated 2008).

Experiment [1] concerns OSRC human osteogenic sarcoma tumor. Put plainly: Osteosarcoma (OSRC) tumor model in nude mice. The class given is in vivo, Nude nu/nu mice. The settings on record: SQ treatments on days 8, 11, 14 and 17; n=4. Here is the method: Tumor cell culture and harvesting was carried out as follows. Human osteogenic sarcoma cancer cells (OSRC cell line) was grown in DMEM containing additional non-essential amino acids and vitamins and 10% heat inactivated fetal bovine serum (Invitrogen™, Carlsbad, Calif.). Cells in log phase were harvested from flasks using trypsin-EDTA (0.05% trypsin/0.53 mM Na-EDTA; Invitrogen™), washed in PBS and resuspended in DMEM for counting and viability assessment using trypan blue exclusion. Cells were resuspended at 2.5×10^7 cells per ml in PBS for injection into the mice.
Nude nu/nu mice (4 to 5 week-old females, Charles River Labs, Wilmington, Mass.) were acclimated for 1 week before injection with 2.5 million OSRC cells subcutaneously (SQ) in a total volume of 100 μl. After 8 days of tumor development, the mice were injected SQ with each peptide or the protein pool prepared in phosphate buffered saline (PBS) containing 0.05% sodium dodecyl sulfate (SDS) or PBS+0.05% SDS alone (Control). All doses were 200 μl in volume, with additional treatments on days 11, 14 and 17 post-transplantation. Treatments were alternated between flanks of the mice. Tumor size (length, width and height) and mouse weights were measured three times per week. The results (FIGS. 6A-B) represent the average of the 4 mice in each group. […]

Another experiment has as its system CAM tissue cells. The experiment is described as follows: Detection of cell death in resected CAM tissues (H-33342 and propidium iodide staining). The class given is in vivo, chick embryos. The settings on record: for apoptosis / DNA fragmentation (H-33342 staining): 100 ng bFGF plus 200 ng peptide. Here is the method:
Following staining, the tissues were washed three times in PBS and fixed in 4% formalin. The tissues were visualized under epifluorescence using a photo-digital imaging system. The number of live, apoptotic and necrotic cells were determined.

Experiment [2] has as its system neo-vascularization of early chick embryo. Put plainly: Chick embryo neo-vascularization inhibition assay. The class given is in vivo, White Leghorn chick embryos. The settings on record: day-3.5 chick embryo, filter disks. The text has this: This assay was completed to determine the impact of Pep A and Pep B on neo-vascularization of early chick embryo. Small windows were created through the blunt end of the shell directly over the air sac of 3.5-day old White Leghorn chick embryos with the use of a small crafts Dremel drill. The air sac was peeled-off and filter disks with different concentrations of the test peptide or buffer control were placed over a section of the developing blood ring and overlapping connecting vessels of the chick embryo. The shell windows were sealed with parafilm and eggs were incubated at 37° C. in a humidified egg incubator. After 48-72 hours, the yolk membrane tissue directly below the filter disks was resected. Tissues were washed three times with PBS and analyzed for inhibition of neo-vascularization using a stereomicroscope with photo-digital attachment.

In experiment [3] the test system is bFGF induced angiogenesis. Put plainly: Chicken chorioallantoic membrane (CAM) assay. The class given is in vivo, White Leghorn chick embryos. The settings on record: for inhibition of bFGF-induced angiogenesis: day-10 chick embryos; for anti-angiogenic activity in CAM assay (overall): increasing doses, 100 ng or 200 ng bFGF, 48 hours at 37° C. The text has this: The chicken chorioallantoic membrane (CAM) assay was completed to assess the effect of the peptides on basic fibroblast growth factor (bFGF) induced angiogenesis. Small windows were created through the blunt end of the shell directly over the air sac of 9-10 day old White Leghorn chick embryos with the use of a small crafts Dremel drill. The air sac was peeled-off, and filter disks saturated with basic fibroblast growth factor (bFGF) and the test peptide (or buffer control) were placed adjacent to each other on the CAM of the chick embryo. The shell windows were sealed with parafilm and eggs were incubated at 37° C. in a humidified egg incubator. After 48-72 hours, the CAM tissue directly below the filter disks was resected. Tissues were washed three times with PBS and analyzed using a stereomicroscope. The number of branching blood vessels infiltrating under the filter disks were determined and documented.

In another experiment the test system is HeLa tumor. Put plainly: In vivo nude mice experiment, HeLa tumor growth. The settings on record: for inhibition of HeLa tumor growth during treatment phase (average tumor volume): n=3; for tumor growth profile post treatment: after fourth treatment until day 24, Pep A 500 and 750 μg, Pep B 500 μg; for response of individual tumors to treatment: tumor volumes on day 14, one day post last treatment; for vascularization and infiltration of isolated tumors (histopathology): compared to control mice. More on the design: species or system Nude nu/nu mice. Here is the method:
The HeLa human cervical cancer cell line (ATCC, Manassas Va.; CCL-2) was grown according to direction in DMEM containing 10% fetal bovine serum. Cells in log phase were harvested from flasks using trypsin-EDTA (0.25% trypsin/1 mM Na-EDTA; Invitrogen), washed in PBS and resuspended in DMEM for counting and viability assessment using trypan blue exclusion. […] Cells were resuspended at 5×10^7 cells/mL in PBS for injection into the mice.
Nude nu/nu mice (4 to 5 week-old females) were acclimated for 1 week and injected with 5 million HeLa cells subcutaneously (SQ) in a total volume of 100 μL. After 3 days of tumor development, the mice were injected SQ with each peptide prepared in phosphate buffered saline (PBS) containing 0.05% sodium dodecyl sulfate (SDS) or PBS+0.05% SDS alone. All doses were 200 μL in volume, with additional treatments on days 6, 10 and 13 post-transplantation. Treatments were alternated between flanks of the mice. Tumor size and mouse weights were measured three times per week. The results represent the average of the 3 mice in each group. The experiment was terminated on day 24 and the tumors were excised for weight and histopathology.
HeLa cells (5×10^6 cells in 100 μL were administered subcutaneously (SQ). The cells were implanted in the left mid-flank region of 5 week old immunodeficient Nude nu/nu female mice (Charles River Labs, Wilmington, Mass.) and allowed to develop to palpable size (average diameter=[…]; average volume=24 mm^3). Mice were randomized and divided into experimental groups, with 3 mice per group. The mice were treated with SQ injections (200 μL) of various doses of peptide in phosphate buffered saline (PBS) containing a detergent, e.g., 0.05% sodium dodecyl sulphate (SDS). Control mice were injected with PBS containing 0.05% SDS alone. […] The treatments were administered on days 3, 6, 10 and 13 post-transplantation. Tumors were measured three times per week until the experiment was terminated on day 24 post-transplantation.

The mark [4] stands for this setting: 200 ng peptide with 100 ng bFGF.
Setting [5] is: 500 μg per dose SQ on days 3, 6, 10 and 13.

“Also recorded” adds a separate entry of the source. Square brackets hold non-standard residues; d marks the D form. Ends that are not written are not given here. pGlu = O=C1CC[C@@H](C(=O)O)N1

With “6 mer: residues 5-10 of SEQ ID NO:1 (YTCKEP)”, in experiment [1], the “osteosarcoma tumor volume (tumor burden)” value was “reduction of osteosarcoma tumor volume”.

Turning to ELKCYTCKEPMTSASCRTIT [Pep A], the “osteosarcoma tumor volume (tumor burden)” value in experiment [1] was “reduction of osteosarcoma tumor volume”. Further, the “apoptosis / DNA fragmentation (H-33342 staining)” value in the experiment on CAM tissue cells is reported as “Intensely staining apoptotic nuclei (white) of vascular cells; also recorded: significant increase in DNA fragmentation”; in the experiment with CAM tissue cells (listed as PepA), “induces cell death by apoptosis”. In addition, in experiment [2], the “suppression of neo-vascularization / branching vessel formation” value is “dose dependent suppression of branching vessel formation”. Besides, the “suppression of bFGF-induced angiogenesis” value in experiment [3] (200 ng of bFGF) is “showed suppression”. The “inhibition of bFGF-induced angiogenesis” value is “comparatively better inhibition of blood vessel infiltration” in experiment [3] (setting [4]); “inhibition of neo-vascularization and infiltration as well as degradation of pre-existing vessels” in experiment [3] (Pep A with 100 ng bFGF). The “anti-angiogenic activity in CAM assay (overall)” value in experiment [3] was “inhibited angiogenesis; also recorded: more potent anti-angiogenic agent”. Besides, the “inhibition of HeLa tumor growth during treatment phase (average tumor volume)” value in the experiment with HeLa tumor (setting [5]) is “tumor inhibition during the treatment phase”; with HeLa tumor (750 μg per dose SQ on days 3, 6, 10 and 13) it was “tumor inhibition during the treatment phase”. Besides, the “tumor growth profile post treatment” value in the experiment on HeLa tumor is “slight increase in tumor burden; also recorded: only limited tumor growth for the duration of the experiment”. Moreover, in the experiment on HeLa tumor, the “response of individual tumors to treatment” value is recorded as “response of all animals”. Moreover, in the experiment on HeLa tumor (tumors isolated upon sacrifice), the “areas of cell death in isolated tumors (histopathology)” value is on record as “larger areas of cell death; also recorded: noticeably larger”. In addition, in the experiment with HeLa tumor (tumors isolated upon sacrifice), the “vascularization and infiltration of isolated tumors (histopathology)” value was “significantly less vascularization and infiltration”.

On to “pyroELKCYTCKEPMTSASCRTIT ([pGlu]LKCYTCKEPMTSASCRTIT; cysteine pairing not given here) [Pep B]”, for which the “apoptosis / DNA fragmentation (H-33342 staining)” value in the experiment with CAM tissue cells is given as “did not demonstrate the peri-vascular apoptosis; also recorded: minimal increase in apoptosis over the control”. In the experiment on CAM tissue cells (compared to controls), the “condensation of the cell nuclei” value is “observable condensation of the cell nuclei”. The “suppression of neo-vascularization / branching vessel formation” value in experiment [2] is given as “dose dependent suppression of branching vessel formation”. For the same substance, the “inhibition of bFGF-induced angiogenesis” value in experiment [3] (setting [4]) is reported as “inhibition of bFGF-induced angiogenesis”. Also, the “anti-angiogenic activity in CAM assay (overall)” value in experiment [3] was “inhibited angiogenesis”. Further, the “inhibition of HeLa tumor growth during treatment phase (average tumor volume)” value in the experiment on HeLa tumor (setting [5]) is on record as “tumor inhibition during the treatment phase”. In the experiment with HeLa tumor, the “tumor growth profile post treatment” value is given as “escalation of tumor burden; also recorded: lost shortly after treatment stopped” and the “response of individual tumors to treatment” value was “response of all animals”. Further, the “vascularization and infiltration of isolated tumors (histopathology)” value in the experiment on HeLa tumor (tumors isolated upon sacrifice) is “significantly less vascularization and infiltration”.
